Source: US5004593A (Mayo Foundation for Medical Education and Research, priority 1989, dated 1991)
“Also recorded” adds a separate entry of the source. Structures can show the parent of a compound that is named as a salt.

Key:
[1] = i.v., dogs, one specific HMM hydrochloride preparation; cited from earlier work
[2] = man; cited from earlier work
[3] = Phase I plasma and urine pharmacokinetics of intravenous HMM in Intralipid 10% (GC assay); format: in vivo, human (cancer patients)
Procedure: (§1) Eighteen patients were treated on the one day every four weeks schedule and 28 patients were treated on the daily ×5 four weeks schedule. Tumors included lung, colorectal, gastric, breast, ovarian, renal, bladder, parotide, hepatic, small bowel, thyroid, fibrosarcoma and fibroblastic osteosarcoma. Forty-five of 47 patients had received prior chemotherapy and/or radiotherapy. All patients had histologic or cytologic confirmation of unresectable cancer for which there was no conventional means of therapy that offered reasonable hope of cure or of significant palliation. All patients were ambulatory and in a reasonable state of nutrition. Patients were required to have WBC count ≥4,000/mm^2, platelet count ≥130,000 m^2, hemoglobin ≥10 g/dl, serum creatinine ≤1.5 mg/dl, ECOG performance status <3, fasting serum triglycerides ≤500 mg/dl. Patients were excluded if they presented with uncontrolled infections, persistent (daily) nausea and/or vomiting, significant chronic obstructive pulmonary disease, any neurologic impairment, major surgery within the proceeding 30 days, radiation to >15% of the bone marrow within 30 days or radiation to total area >30% of bone marrow at any time.
(§2) Tests done prior to entry into study included a history, physical examination and tumor measurement whenever possible, WBC count, hemoglobin, platelet count, chest x-ray, electrocardiogram, electroencephalogram, urine analysis, triglycerides, SGOT, and serum creatinine. Between courses of treatment, the hematology group was checked twice weekly and the hemoglobin, SGOT and serum creatinine once weekly. Triglycerides were determined before and after each HMM treatment. Patients were entered in groups of three at each dose level. New patients were entered at a higher dose level only after the three patients treated at the previous level had been observed for a minimum of three weeks, counting from the last day of treatment. Patients not having significant toxicity at a given dose level were retreated at the next higher dose level but a minimum of three patients who never received HMM were entered at each escalation on each schedule. Dose levels on the daily ×5 schedule were […]. Dose increments for the one-day schedule were 360, 540, 675, 750, 844, and 1,000 mg/m^2.
(§3) Unit dose amounts of drug, Intralipid 10%®, and diluents were changed as dose levels of HMM increased throughout the study. At doses which will be relevant for Phase II evaluation of the parenteral formulation, the following drug preparation scheme was employed. The Mayo Comprehensive Cancer Center Pharmacy weighed 500 mg portions of bulk HMM into sterile vials. HMM was dissolved in 0.1 N hydrochloric acid (sterile HCl for parenteral administration, USP) by adding 27.50 ml of the 0.1 N HCl to each 500 mg vial. The concentration of this solution was 18.2 mg HMM.HCl/ml. The volume of the HMM.HCl solution to be drawn up for each patient was determined by dividing the patient dose level by 18.2 (e.g., for a 750 mg dose, 750 mg divided by 18.2 mg/ml =41.2 ml of the HMM.HCl solution withdrawn from the vial). A 0.22 micron filter assembly was fitted to the syringe containing the appropriate HMM.HCl solution. The volume was filtered into a 500 ml empty sterile and sealed vial. Thus, the correct patient dose was placed in the evacuated vial. An equal volume of air was withdrawn from the sealed vial to maintain vacuum.
(§4) The amount of Intralipid 10%® to be added was determined by dividing the dose by 5.1 (e.g. 750 divided by 5.1=147 ml). The appropriate volume of Intralipid 10%® was added to the 500 ml vial containing the HMM.HCl solution. […]

[4] = Phase I clinical trial, toxicity of intravenous HMM; format: in vivo, human (cancer patients)
Procedure: as §1, §2, §3, §4

refractory tumors = test: Phase I clinical trial, tumor response to intravenous HMM; format: in vivo, human (cancer patients); details: i.v.
Procedure: as §1, with “Patients were excluded if they presented with uncontrolled infections, persistent (daily) nausea and/or vomiting, significant chronic obstructive pulmonary disease, any neurologic impairment, major surgery within the proceeding 30 days, radiation to >15% of the bone marrow within 30 days or radiation to total area >30% of bone marrow at any time.” left out
Tests done prior to entry into study included a history, physical examination and tumor measurement whenever possible, WBC count, hemoglobin, platelet count, chest x-ray, electrocardiogram, electroencephalogram, urine analysis, triglycerides, SGOT, and serum creatinine. […] Triglycerides were determined before and after each HMM treatment. […]

[5] = HMM concentration in formulation before and after filtration (% theoretical) and precipitation; format: physicochemical; details: for % Theoretical HMM Concentration, After Filter: 0.45μ filter
Procedure: as §3
The amount of Intralipid 10%® to be added was determined by dividing the dose by 5.1 (e.g. 750 divided by 5.1=147 ml). The appropriate volume of Intralipid 10%® was added to the 500 ml vial containing the HMM.HCl solution. Finally, the volume of sodium bicarbonate (sodium bicarbonate for parenteral injection, USP, 1 mEq/ml) was determined by the formula of 0.1 ml sodium bicarbonate for every 20 mg of HMM to be administered (e.g., 750 mg divided by 20=37.5×0.1 ml =3.75 ml sodium bicarbonate). This provided approximately a 4 mg/ml solution of HMM-Intralipid 10%®. A vented tubing set was added to the bottle with the patient's dose. A particulate filter (4.5 micron) was attached to an 18 gauge needle and the filter and needle were placed on the tubing to fill the 500 ml empty bag. The drug was administered at a rate of 2 ml/min or 8 mg/min. Thus, infusion time was lengthened as dose levels increased maintaining a constant rate of drug administration. Fifty (50) ml of normal saline was infused following completion of the HMM infusion.
Details of drug preparation are described in the Methods section while a summary of the formulation procedure is shown in Table 1, below.
This modification of the initial formulation reported in Cancer Treat. Rep., 66, 1579 (1982) to first dissolve the HMM in aqueous HCl, eliminated the use of a toxic organic solvent (ethanol or dimethylacetamide) while ensuring complete and uniform mixing of drug with Intralipid 10%®. Assessment of the formulated product was determined at each step of the procedure by measuring HMM concentrations before and after filtration through 0.45 micron filters (Intralipid 10%® average particle size is approximately 0.40 micron). […] HMM concentrations following filtration of such mixtures yielded <5% of the theoretical HMM concentration.

[6] = test system: ovarian adenocarcinoma, metastatic small cell carcinoma of the lung, metastatic breast cancer and refractory lymphoma; details: single agent clinical trials; cited from earlier work
[7] = clinical; cited from earlier work
[8] = cited from earlier work
[9] = oral administration, man; cited from earlier work
[10] = oral administration, rabbits; due to extensive first-pass metabolism rather than poor absorption; cited from earlier work
[11] = 540 mg/m^2 i.v., three-compartment open model
[12] = i.v., one-day or daily ×5 schedules
[13] = after NaHCO3 (1 mEq/ml) 0.1 ml:5 ml, ca. 4 mg/ml
[14] = dissolved in 0.1 N HCl, ca. 20 mg/ml

In the case of `CN(C)c1nc(N(C)C)nc(N(C)C)n1` [HMM hydrochloride], the “tolerability, intravenous” value [1] is given as “well-tolerated” and the “local irritation and phlebitis” value [2] is given as “severe local irritation and phlebitis”.
For `CN(C)c1nc(N(C)C)nc(N(C)C)n1` [HMM, 2,4,6-tris(dimethylamino)-1,3,5-triazine], the “steady state volume of distribution” value [3, 11] was 460 1/m^2, the “steady state volume of distribution (Vdss)” value [3, 11] was 460 l/m^2 and the terminal half-life [3, 11] was 10.4 h. For the same compound, the “total body clearance (ClTB)” value [3, 11] was 0.75 1/min/m^2, the “accumulation during five-day treatment” value ([3]; 945 mg/m^2, daily ×5) was “disproportionate accumulation” and the “observed vs predicted (simulated) 24 hour trough plasma concentrations” value ([3]; 945 mg/m^2, daily ×5) was “significantly greater than predicted”. The “accumulation during five-day treatment” value ([3]; 945 mg/m^2, daily ×5, listed as hexamethylmelamine) was “possible saturation of parent drug elimination”, the “observed vs predicted (simulated) 24 hour trough plasma concentrations” value ([3]; 506 and 632 mg/m^2, daily ×5) was “in agreement with predicted values” and the “Twenty-four hour urinary recoveries of parent drug” value ([3]; 24 h, all patients) was “less than one”. The “HMM 24 hours following each dose” value ([3]; daily ×5 schedule, plasma) was “detected”, the “change of 24 hour drug concentration over days” value ([3]; daily ×5 schedule, plasma) was “increased each day” and the Cmax ([3]; human, iv, 540 mg/m^2 one-day schedule, five patients, plasma, read-out: Peak concentrations of HMM at the end of infusion) was 2550 to 9350 ng/mL. The half-life ([3]; human, plasma, iv, 540 mg/m^2 i.v., three-compartment open model, read-out: terminal half-life (converted)) was 10.4 h, the dose excreted at 24 h ([3]; human, urine, iv, 24 h, read-out: 24 hour urinary recovery of parent drug) was less than 1% and the “plasma levels / plasma AUC compared with oral administration” value ([3]; i.v. vs oral) was “Substantially higher plasma AUC values”. The “consistency of plasma concentrations compared with oral” value ([3]; i.v. vs oral (D'Incalci)) was “more consistent plasma concentrations”, the demethylated urinary metabolites ([3]; urine) was “Demethylated urinary metabolites including penta-, tetra-, tri-, and di-methylmelamines were detected in urine” and the “white blood cell counts” value ([4]; all patients) was ≥ 3,000 /μl. For the same compound, the maximally tolerated dose ([4]; daily ×5 schedule, i.v.) was roughly 630 mg/m^2 /day, the maximum-tolerated doses ([4]; five days in a row every four weeks) was 500-600 mg/m^2 /day and the myelosuppression ([4]; i.v.) was “minimal myelosuppression”. The “peripheral neuropathy compared with oral administration” value ([4]; i.v. aqueous fat emulsion vs same amount orally) was “reduced from the level observed when the same amount of HMM is administered orally”, the “CNS toxicity, peripheral neuropathy” value [4, 12] was “no CNS toxicity, specifically peripheral neuropathy, was noted in any patients” and the dose-limiting toxicity [4, 12] was “nausea and vomiting”. For the same compound, the “platelet nadir below 100,000/μl (one patient)” value ([4]; one-day administration of 540 mg/m^2) was 75,000 /μl, the hematologic toxicities ([4]; one-day or five-day regimen) was “no significant hematologic toxicities” and the maximally tolerated dose ([4]; one-day schedule, i.v.) was “approximately 850 mg/m^2”. For the same compound, the tumor responses (refractory tumors) was “No objective responses; also recorded: no tumor responses were observed”, the “% Theoretical HMM Concentration, After Filter” value ([5]; after Intralipid 10% added 4 ml:1 ml, ca. 4 mg/ml) was 100% and the “% Theoretical HMM Concentration, Before Filter” value [5, 13] was 100%. The “% Theoretical HMM Concentration, After Filter” value [5, 13] was 100%, the “% Theoretical HMM Concentration, Before Filter” value [5, 14] was 100% and the “% Theoretical HMM Concentration, After Filter” value [5, 14] was 100%. The “HMM concentration in the final filtered product, % of theoretical” value ([5]; final product, 0.45 micron filter) was 90-95%, the active against cancers [6] was “active against a number of cancers including ovarian adenocarcinoma, metastatic small cell carcinoma of the lung, metastatic breast cancer and refractory lymphoma” and the delayed toxicity [7] was “moderate anemia, thrombocytopenia, leukopenia, and a peripheral neuropathy”. The “main acute adverse effects” value [7] was “Nausea and vomiting”, the “peripheral neuropathy, symptoms” value [7] was “parethesias, hypesthesias, motor weakness, and other sensory alterations” and the “solubility in water and nontoxic solvents” value [8] was “very limited solubility in water and nontoxic solvents”. For the same compound, the “plasma concentrations of parent drug” value [9] was “Low and variable plasma concentrations of parent drug” and the bioavailability [10] was “poor bioavailability”.
